Laboratory results taken from PubChem BioAssay (NCI).
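Dose response: 5 concentrations. Exposure: 48 h. Format: 96-well plates. Endpoint: linear interpolation; highest concentration if not reached. Abbreviation: GI50, concentration required for 50% inhibition of growth. The concentration for full growth arrest is given as TGI.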

Assays:
Experiment in all cases: inhibition of tumour cell growth, NCI panel, 48 h
[1] = system: HL-60(TB) leukemia
[2] = system: MDA-MB-435
[3] = system: SK-OV-3 ovarian
[4] = system: RXF 393 renal
[5] = system: HS 578T breast
[6] = system: SN12C renal
[7] = system: MCF7 breast
[8] = system: BT-549 breast
[9] = system: SK-MEL-28 melanoma
[10] = system: COLO 205 colon
[11] = system: MOLT-4 leukemia
[12] = system: OVCAR-3 ovarian
[13] = system: LOX IMVI melanoma
[14] = system: PC-3 prostate
[15] = system: HCT-116 colon
[16] = system: M14 melanoma
[17] = system: SW-620 colon
[18] = system: SNB-19 CNS
[19] = system: SF-268 CNS
[20] = system: ACHN renal
[21] = system: UACC-62 melanoma
[22] = system: OVCAR-5 ovarian
[23] = system: EKVX NSCLC
[24] = system: HOP-62 NSCLC
[25] = system: SK-MEL-2 melanoma
[26] = system: UACC-257 melanoma
[27] = system: CAKI-1 renal
[28] = system: UO-31 renal
[29] = system: CCRF-CEM leukemia
[30] = system: NCI-H460 lung
[31] = system: A498 renal
[32] = system: U251 CNS
[33] = system: OVCAR-8 ovarian
[34] = system: SNB-75 CNS
[35] = system: HCC-2998 colon
[36] = system: SR leukemia
[37] = system: T-47D breast
[38] = system: SF-539 CNS
[39] = system: K-562 leukemia
[40] = system: NCI-H226 lung
[41] = system: MALME-3M melanoma
[42] = system: NCI/ADR-RES ovarian
[43] = system: DU-145 prostate
[44] = system: HT29 colon
[45] = system: OVCAR-4 ovarian
[46] = system: RPMI-8226 leukemia
[47] = system: IGROV1 ovarian
[48] = system: KM12 colon
[49] = system: SK-MEL-5 melanoma
[50] = system: NCI-H23 lung
[51] = system: HCT-15 colon
[52] = system: 786-0 renal
[53] = system: A549 NSCLC
[54] = system: MDA-MB-231 breast
[55] = system: TK-10 renal
[56] = system: NCI-H522 lung
[57] = system: SF-295 CNS

CC/C=C\C=C/C(=O)N/C=C/CC1Cc2cccc(O)c2C(=O)O1 (centres undefined)
GI50 [1]: 23.8 µM | TGI [1]: > 100 µM | GI50 [2]: 3 µM | TGI [2]: 10.7 µM | GI50 [3]: 46.7 µM | TGI [3]: > 100 µM | GI50 [4]: 16.1 µM | TGI [4]: 35.8 µM | GI50 [5]: 28.9 µM | TGI [5]: > 100 µM | GI50 [6]: 17.8 µM | TGI [6]: 38.1 µM | GI50 [7]: 3.87 µM | TGI [7]: 49.4 µM | GI50 [8]: 25.8 µM | TGI [8]: 87.3 µM | GI50 [9]: 17.4 µM | TGI [9]: 58.7 µM | GI50 [10]: 20.3 µM | TGI [10]: 41.2 µM | GI50 [11]: 13.4 µM | TGI [11]: 42.2 µM | GI50 [12]: 15.1 µM | TGI [12]: 39.7 µM | GI50 [13]: 13.3 µM | TGI [13]: 26.5 µM | GI50 [14]: 25.3 µM | TGI [14]: > 100 µM | GI50 [15]: 19.1 µM | TGI [15]: 42.2 µM | GI50 [16]: 22.7 µM | TGI [16]: 64.2 µM | GI50 [17]: 13.8 µM | TGI [17]: 28.2 µM | GI50 [18]: 32.9 µM | TGI [18]: > 100 µM | GI50 [19]: 15.1 µM | TGI [19]: 53.3 µM | GI50 [20]: 22.3 µM | TGI [20]: 52.1 µM | GI50 [21]: 22.6 µM | TGI [21]: > 100 µM | GI50 [22]: 32.5 µM | TGI [22]: 99.4 µM | GI50 [23]: 38.8 µM | TGI [23]: > 100 µM | GI50 [24]: 14.5 µM | TGI [24]: 50.5 µM | GI50 [25]: 22.9 µM | TGI [25]: > 100 µM | GI50 [26]: 25.2 µM | TGI [26]: > 100 µM | GI50 [27]: 17.3 µM | TGI [27]: 36.3 µM | GI50 [28]: 35.4 µM | TGI [28]: > 100 µM | GI50 [29]: 15 µM | TGI [29]: 39.9 µM | GI50 [30]: 24.3 µM | TGI [30]: 62.1 µM | GI50 [31]: 20.6 µM | TGI [31]: 59.9 µM | GI50 [32]: 23.3 µM | TGI [32]: > 100 µM | GI50 [33]: 30 µM | TGI [33]: > 100 µM | GI50 [34]: 16 µM | TGI [34]: > 100 µM | GI50 [35]: 19.2 µM | TGI [35]: 43.5 µM | GI50 [36]: 2.22 µM | TGI [36]: 6.2 µM | GI50 [37]: 36.1 µM | TGI [37]: > 100 µM | GI50 [38]: 13.9 µM | TGI [38]: 37.1 µM | GI50 [39]: 11.5 µM | TGI [39]: > 100 µM | GI50 [40]: 39.6 µM | TGI [40]: > 100 µM | GI50 [41]: 41.5 µM | TGI [41]: > 100 µM | GI50 [42]: 35.5 µM | TGI [42]: > 100 µM | GI50 [43]: 17.3 µM | TGI [43]: 52 µM | GI50 [44]: 23.5 µM | TGI [44]: 53.7 µM | GI50 [45]: 44.4 µM | TGI [45]: > 100 µM | GI50 [46]: 22.2 µM | TGI [46]: 56.4 µM | GI50 [47]: 38 µM | TGI [47]: > 100 µM | GI50 [48]: 19.2 µM | TGI [48]: 72.1 µM | GI50 [49]: 5.63 µM | TGI [49]: 27.3 µM | GI50 [50]: 58.1 µM | TGI [50]: > 100 µM | GI50 [51]: 13.6 µM | TGI [51]: 42 µM | GI50 [52]: 25.2 µM | TGI [52]: 73.8 µM | GI50 [53]: 34.9 µM | TGI [53]: > 100 µM | GI50 [54]: 17 µM | TGI [54]: 39 µM | GI50 [55]: 62 µM | TGI [55]: > 100 µM | GI50 [56]: 19.5 µM | TGI [56]: 55.2 µM | GI50 [57]: 33.1 µM | TGI [57]: > 100 µM

Cc1c(C(=O)/C=C/c2csc3ccccc23)[n+](=O)c2ccccc2n1[O-]
GI50 [1]: 1.78 µM | TGI [1]: 5.19 µM | GI50 [2]: 1.73 µM | TGI [2]: 3.26 µM | GI50 [3]: 1.79 µM | TGI [3]: 4.95 µM | GI50 [4]: 1.91 µM | TGI [4]: 3.58 µM | GI50 [5]: 1.56 µM | TGI [5]: 5.22 µM | GI50 [6]: 2 µM | TGI [6]: 4.72 µM | GI50 [7]: 2.28 µM | TGI [7]: 8.18 µM | GI50 [8]: 1.61 µM | TGI [8]: 3.88 µM | GI50 [9]: 2.07 µM | TGI [9]: 4.81 µM | GI50 [11]: 2.71 µM | TGI [11]: 7 µM | GI50 [12]: 1.32 µM | TGI [12]: 2.62 µM | GI50 [13]: 1.23 µM | TGI [13]: 2.47 µM | GI50 [14]: 1.71 µM | TGI [14]: 4.3 µM | GI50 [15]: 1.37 µM | TGI [15]: 2.65 µM | GI50 [16]: 1.57 µM | TGI [16]: 3.21 µM | GI50 [17]: 1.49 µM | TGI [17]: 2.81 µM | GI50 [18]: 2.08 µM | TGI [18]: 4.77 µM | GI50 [19]: 1.44 µM | TGI [19]: 2.78 µM | GI50 [20]: 1.48 µM | TGI [20]: 2.8 µM | GI50 [21]: 1.77 µM | TGI [21]: 3.65 µM | GI50 [22]: 1.47 µM | TGI [22]: 2.94 µM | GI50 [23]: 1.32 µM | TGI [23]: 3.64 µM | GI50 [24]: 1.41 µM | TGI [24]: 2.8 µM | GI50 [25]: 2.06 µM | TGI [25]: 4.23 µM | GI50 [26]: 1.81 µM | TGI [26]: 3.73 µM | GI50 [27]: 1.42 µM | TGI [27]: 3.7 µM | GI50 [28]: 1.24 µM | TGI [28]: 2.56 µM | GI50 [29]: 2.42 µM | TGI [29]: 7.56 µM | GI50 [30]: 1.41 µM | TGI [30]: 2.71 µM | GI50 [31]: 3.38 µM | TGI [31]: 13.8 µM | GI50 [32]: 1.64 µM | TGI [32]: 3.17 µM | GI50 [33]: 2.37 µM | TGI [33]: 6.31 µM | GI50 [34]: 1.38 µM | TGI [34]: 3.34 µM | GI50 [35]: 1.91 µM | TGI [35]: 3.38 µM | GI50 [36]: 1.79 µM | TGI [36]: 8.69 µM | GI50 [37]: 1.92 µM | TGI [37]: 5.81 µM | GI50 [38]: 1.59 µM | TGI [38]: 3.12 µM | GI50 [40]: 1.82 µM | TGI [40]: 4.94 µM | GI50 [41]: 2.29 µM | TGI [41]: 8.06 µM | GI50 [42]: 2.01 µM | TGI [42]: 5 µM | GI50 [43]: 1.46 µM | TGI [43]: 2.78 µM | GI50 [44]: 2.2 µM | TGI [44]: 4.13 µM | GI50 [45]: 1.98 µM | TGI [45]: 4.83 µM | GI50 [46]: 1.78 µM | TGI [46]: 4.91 µM | GI50 [47]: 1.34 µM | TGI [47]: 3.04 µM | GI50 [48]: 1.56 µM | TGI [48]: 2.9 µM | GI50 [49]: 1.59 µM | TGI [49]: 2.94 µM | GI50 [50]: 1.61 µM | TGI [50]: 3.49 µM | GI50 [51]: 1.83 µM | TGI [51]: 4.4 µM | GI50 [52]: 1.64 µM | TGI [52]: 3.09 µM | GI50 [53]: 2.13 µM | TGI [53]: 5.25 µM | GI50 [54]: 1.94 µM | TGI [54]: 4.81 µM | GI50 [55]: 2.79 µM | TGI [55]: 6.09 µM | GI50 [56]: 1.78 µM | TGI [56]: 3.88 µM | GI50 [57]: 1.94 µM | TGI [57]: 4.83 µM

Nc1nc(Cl)cc(OCC2(O)CC(COC(=O)c3ccccc3)C2)n1 (centres undefined)
GI50 [1]: 58.4 µM | GI50 [5]: 46.6 µM | GI50 [7]: 47.7 µM | GI50 [10]: 46.6 µM | GI50 [11]: 26.9 µM | TGI [11]: 83.7 µM | GI50 [12]: 82.2 µM | GI50 [13]: 76.1 µM | GI50 [15]: 82.9 µM | GI50 [18]: 34.1 µM | GI50 [23]: 13.2 µM | GI50 [28]: 91.5 µM | GI50 [29]: 47.9 µM | GI50 [32]: 76.1 µM | GI50 [33]: 71 µM | GI50 [34]: 53 µM | GI50 [36]: 32.1 µM | GI50 [37]: 30.7 µM | GI50 [39]: 40.3 µM | GI50 [40]: 81 µM | GI50 [42]: 39.5 µM | GI50 [44]: 70 µM | GI50 [45]: 38.2 µM | GI50 [46]: 85.5 µM | GI50 [48]: 30.6 µM | GI50 [49]: 37.3 µM | GI50 [50]: 51.8 µM | GI50 [53]: 67.8 µM | GI50 [54]: 48.1 µM | GI50 [57]: 78.5 µM
